The subject of series [1] is ZEAMX: corn (Zea mais). The series can be described thus: Dry stress test on potted plants, spray application, corn. The format is in vivo. As to conditions: individual substance. Here is the method: (§1) Seeds of monocotyledonous and dicotyledonous crop plants are placed in sandy loam in wood-fiber pots, covered with soil and cultivated in a greenhouse under good growth conditions. The test plants are treated in the early leaf stage (BBCH10-BBCH13, BBCH-Monografie der Biologische Bundesanstalt für Land and Forstwirtschaft, 2nd edition, 2001), i.e. 2-3 weeks after sowing according to the species. To ensure uniform water supply before commencement of stress, the potted plants were supplied with the maximum amount of water immediately beforehand by dam irrigation and transferred in plastic inserts in order to prevent subsequent, excessively rapid drying. The inventive compounds, formulated in the form of wettable powders (WP), are then sprayed onto the green parts of the plants as an aqueous suspension at an equivalent water application rate of 600 l/ha with addition of 0.2% wetting agent (agrotin). Substance application is followed immediately by stress treatment of the plants (cold or dry stress). Dry stress is induced by slow drying under the following conditions: • “day”: 14 hours with illumination at 26° C. • “night”: 10 hours without illumination at 18° C. The cold stress phase is ended after exactly 14 days. The duration of the dry stress phase is guided mainly by the state of the untreated, stressed control plants and thus varies from crop to crop. It is ended (by re-irrigating) as soon as irreversible damage is observed on the untreated, stressed control plants. In the case of dicotyledonous crops, for example oilseed rape and soya, the duration of the dry stress phase is between 4 and 6 days, in the case of monocotyledonous crops, for example wheat, barley or corn, between 6 and 10 days. The end of the stress phase is followed by a 7-day recovery phase, during which the plants are once again kept under good growth conditions in a greenhouse. In order to rule out any influence of the effects observed by any fungicidal action of the test compounds, it is additionally ensured that the tests proceed without fungal infection and without infection pressure. After the recovery phase has ended, the intensities of damage are rated visually compared to untreated, unstressed controls of the same age (in the case of dry stress) or the same growth stage (in the case of cold stress). The intensity of damage is first assessed as a percentage (100%=plants have died, 0%=like control plants). These values are then used to calculate the efficacy of the test compounds (=percentage reduction in the intensity of damage as a result of substance application) by the following formula: [formula] EF: efficacy (%) DVus: damage value of the untreated, stressed control DVts: damage value of the plants treated with test compound The table below lists mean values in each case from three results of the same test.

Series [2] relates to BRSNS: oilseed rape (Brassica napus). The series can be described thus: Dry stress test on potted plants, spray application, oilseed rape. In kind it is in vivo. The conditions noted are these: individual substance. The method, then:
as §1

Series [3] has as its system HORVS barley (Hordeum vulgare). The series can be described thus: Dry stress test on potted plants, spray application, barley. The format is in vivo. The conditions noted are these: 100 g/ha, individual substance. Here is the method: Seeds of monocotyledonous and dicotyledonous crop plants are placed in sandy loam in wood-fiber pots, covered with soil and cultivated in a greenhouse under good growth conditions. The test plants are treated in the early leaf stage (BBCH10-BBCH13, BBCH-Monografie der Biologische Bundesanstalt für Land and Forstwirtschaft, 2nd edition, 2001), i.e. 2-3 weeks after sowing according to the species. To ensure uniform water supply before commencement of stress, the potted plants were supplied with the maximum amount of water immediately beforehand by dam irrigation and transferred in plastic inserts in order to prevent subsequent, excessively rapid drying. The inventive compounds, formulated in the form of wettable powders (WP), are then sprayed onto the green parts of the plants as an aqueous suspension at an equivalent water application rate of 600 l/ha with addition of 0.2% wetting agent (agrotin). Substance application is followed immediately by stress treatment of the plants (cold or dry stress). Dry stress is induced by slow drying under the following conditions: • “day”: 14 hours with illumination at 26° C. • “night”: 10 hours without illumination at 18° C. The cold stress phase is ended after exactly 14 days. […] The intensity of damage is first assessed as a percentage (100%=plants have died, 0%=like control plants). […]

Series [4] concerns crop plants, for example oilseed rape. The series can be described thus: Stunting: mean plant height after azole application. The format is in vivo. The conditions noted are these: dosage 250 g/ha, comparative 11.7 cm. An excerpt:
In the case of application of the inventive azoles, this stunting occurs to a lower or non-undesirable degree: […]

Series [5] deals with ABA 8′-hydroxylase. The conditions noted are these: studies to date (Kitahata et al., 2005; Saito et al., 2006); cited from earlier work.

SMILES strings stand for the structures.

As for `Fc1ccc([C@]2(Cn3cncn3)O[C@H]2c2ccccc2Cl)cc1` (racemic) [epoxiconazole], the “efficacy (percentage reduction in the intensity of damage)” value in series [1] (100 g/ha) amounted to 11%; in series [2] (100 g/ha), 35%; in series [3], 17%.

In the case of `CC(C1CC1)C(O)(Cn1cncn1)c1ccc(Cl)cc1` (stereo not shown) [cyproconazole], the entries for the “efficacy (percentage reduction in the intensity of damage)” value in series [1] (100 g/ha), in series [1] (250 g/ha) and in series [2] (250 g/ha) were 40%, 37% and 42%, respectively.

With `CC1(C)CCC(Cc2ccc(Cl)cc2)C1(O)Cn1cncn1` (stereo not shown) [metconazole], the “efficacy (percentage reduction in the intensity of damage)” value in series [2] (100 g/ha) turned out to be 50%.

Regarding `OC(Cc1ccccc1Cl)(Cn1nc[nH]c1=S)C1(Cl)CC1` (stereo not shown) [prothioconazole], the “efficacy (percentage reduction in the intensity of damage)” value turned out to be 12% in series [1] (100 g/ha), 12% in series [2] (100 g/ha) and 11% in series [3]. The “Mean plant height (cm)” value in series [4] amounted to 10.2 cm.

As to `CC(C)(C)C(O)(CCc1ccc(Cl)cc1)Cn1cncn1` (stereo not shown) [tebuconazole], the “efficacy (percentage reduction in the intensity of damage)” value in series [1] (250 g/ha) was 30%; in series [2] (100 g/ha) it was 27%; in series [2] (250 g/ha), 42%. Besides, the “inhibiting action on abscisic acid catabolism or ABA 8′-hydroxylase” value in series [5] is given as “only slight inhibiting action, if any”. Moreover, the “Mean plant height (cm)” value in series [4] is 10.2 cm.

The values are drawn from patent US8614168B2, “Use of azoles for increasing the abiotic stress resistance of plants or plant parts” (Monheim, priority 2008, dated 2013).
